According to patent US11802120B2, “Fused cyclic urea derivatives as CRHR2 antagonist” (RaQualia Pharma Inc., priority 2018, dated 2023):

Molecular target: T1, human CRHR2-alpha (Homo sapiens, UniProt Q13324)
T1 sequence (Q13324 1-411): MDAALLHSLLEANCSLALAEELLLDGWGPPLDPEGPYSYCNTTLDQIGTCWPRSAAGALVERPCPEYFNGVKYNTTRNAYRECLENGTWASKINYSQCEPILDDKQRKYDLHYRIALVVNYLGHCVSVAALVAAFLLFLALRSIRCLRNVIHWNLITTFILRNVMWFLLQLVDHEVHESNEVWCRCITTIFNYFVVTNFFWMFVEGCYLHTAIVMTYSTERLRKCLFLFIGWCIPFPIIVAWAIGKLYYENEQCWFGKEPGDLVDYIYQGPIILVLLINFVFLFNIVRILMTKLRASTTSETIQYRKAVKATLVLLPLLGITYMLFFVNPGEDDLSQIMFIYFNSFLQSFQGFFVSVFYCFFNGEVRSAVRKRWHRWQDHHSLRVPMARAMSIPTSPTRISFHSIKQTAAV
Assay: cAMP functional assay for human CRHR2 (LANCE Ultra cAMP, TR-FRET)
Type: cell-based
Conditions: CHO-K1 cells expressing human CRHR2-alpha, agonist human urocortin2 at EC80, cAMP; read-out: IC50 against CRHR2
Procedure, shortened: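 IC50 values derive from percent inhibition of EC80 agonist-stimulated cAMP in CHO-K1 transfectants, with 0.5 mM IBMX present; the CRHR2 line was stimulated by human urocortin2 and the CRHR1 line by CRF.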

Cc1ncc(Cl)cc1C(=O)N[C@H]1CC[C@H](Cn2c(=O)n(-c3ccc4nc(C)n(C)c4c3)c3ccccc32)CC1 [Example 209, 5-chloro-N-((1r,4r)-4-((2′,3′-dimethyl-2-oxo-3′H-[1,5′-bibenzo[d]imidazol]-3(2H)-yl)methyl)cyclohexyl)-2-methylnicotinamide]
IC50: < 300 nM

Cc1ncc(Cl)cc1C(=O)N[C@H]1CC[C@H](Cn2c(=O)n(-c3ccc4c(Cl)n[nH]c4c3)c3ccccc32)CC1 [Example 210, 5-chloro-N-((1r,4r)-4-((3-(3-chloro-1H-indazol-6-yl)-2-oxo-2,3-dihydro-1H-benzo[d]imidazol-1-yl)methyl)cyclohexyl)-2-methylnicotinamide]
IC50: < 300 nM

Cc1ncc(Cl)cc1C(=O)N[C@H]1CC[C@H](Cn2c(=O)n(C3Cc4ccc(Br)cc4C3)c3ccncc32)CC1 (stereo partly shown) [Example 211, N-((1r,4r)-4-((1-(5-bromo-2,3-dihydro-1H-inden-2-yl)-2-oxo-1H-imidazo[4,5-c]pyridin-3(2H)-yl)methyl)cyclohexyl)-5-chloro-2-methylnicotinamide]
IC50: < 300 nM

Cc1ncc(Cl)cc1C(=O)N[C@H]1CC[C@H](Cn2c(=O)n(-c3ccc4[nH]nc(C)c4c3)c3ncccc32)CC1 [Example 212, 5-chloro-2-methyl-N-((1r,4r)-4-((3-(3-methyl-1H-indazol-5-yl)-2-oxo-2,3-dihydro-1H-imidazo[4,5-b]pyridin-1-yl)methyl)cyclohexyl)nicotinamide]
IC50: < 300 nM

Cc1ncc(Cl)cc1C(=O)N[C@H]1CC[C@H](Cn2c(=O)n(-c3ccc4c(c3)c(C)nn4C)c3ccccc32)CC1 [Example 213, 5-chloro-N-((1r,4r)-4-((3-(1,3-dimethyl-1H-indazol-5-yl)-2-oxo-2,3-dihydro-1H-benzo[d]imidazol-1-yl)methyl)cyclohexyl)-2-methylnicotinamide]
IC50: < 300 nM

Cc1ncc(Cl)cc1C(=O)N[C@H]1CC[C@H](Cn2c(=O)n(-c3ccc(-c4cnn(C)c4)nc3)c3ccccc32)CC1 [Example 214, 5-chloro-2-methyl-N-((1r,4r)-4-((3-(6-(1-methyl-1H-pyrazol-4-yl)pyridin-3-yl)-2-oxo-2,3-dihydro-1H-benzo[d]imidazol-1-yl)methyl)cyclohexyl)nico-tinamide]
IC50: < 300 nM

Cc1ncc(Cl)cc1C(=O)N[C@H]1CC[C@H](Cn2c(=O)n(-c3cnc4c(c3)oc(=O)n4C)c3ccccc32)CC1 [Example 215, 5-chloro-2-methyl-N-((1r,4r)-4-((3-(3-methyl-2-oxo-2,3-dihydrooxazolo[4,5-b]pyridin-6-yl)-2-oxo-2,3-dihydro-1H-benzo[d]imidazol-1-yl)methyl)cyclohexyl)nicotinamide]
IC50: < 300 nM

Cc1ncc(Cl)cc1C(=O)N[C@H]1CC[C@H](Cn2c(=O)n(-c3ccc(-c4ccc(N)nc4)nc3)c3ccccc32)CC1 [Example 216]
IC50: < 300 nM

CC(=O)N1CCc2cc(-n3c(=O)n(C[C@H]4CC[C@H](NC(=O)c5cc(Cl)cnc5C)CC4)c4ccccc43)ccc2C1 [Example 218, N-((1r,4r)-4-((3-(2-acetyl-1,2,3,4-tetrahydroisoquinolin-6-yl)-2-oxo-2,3-dihydro-1H-benzo[d]imidazol-1-yl)methyl)cyclohexyl)-5-chloro-2-methylnicotinamide]
IC50: < 300 nM

Cc1ncc(Cl)cc1C(=O)N[C@H]1CC[C@H](Cn2c(=O)n(-c3ccccc3C#N)c3ccccc32)CC1 [Example 219, 5-chloro-N-((1r,4r)-4-((3-(2-cyanophenyl)-2-oxo-2,3-dihydro-1H-benzo[d]imidazol-1-yl)methyl)cyclohexyl)-2-methylnicotinamide]
IC50: < 300 nM

COc1ccc(-n2c(=O)n(C[C@H]3CC[C@H](NC(=O)c4c5ccccc5nn4C)CC3)c3ccccc32)cn1 [Example 220, N-((1r,4r)-4-((3-(6-methoxy-pyridin-3-yl)-2-oxo-2,3-dihydro-1H-benzo[d]imidazol-1-yl)methyl)cyclohexyl)-2-methyl-2H-indazole-3-carboxamide]
IC50: < 300 nM

COc1ccc(-n2c(=O)n(C[C@H]3CC[C@H](NC(=O)c4c5c(nn4C)CCCC5)CC3)c3ccccc32)cn1 [Example 221, N-((1r,4r)-4-((3-(6-methoxy-pyridin-3-yl)-2-oxo-2,3-dihydro-1H-benzo[d]imidazol-1-yl)methyl)cyclohexyl)-2-methyl-4,5,6,7-tetrahydro-2H-indazole-3-carboxamide]
IC50: < 300 nM

Cc1ncc(Cl)cc1C(=O)N[C@H]1CC[C@H](Cn2c(=O)n(-c3ccc4[nH]nc(Cl)c4c3)c3ccccc32)CC1 [Example 222, 5-chloro-N-((1r,4r)-4-((3-(3-chloro-1H-indazol-5-yl)-2-oxo-2,3-dihydro-1H-benzo[d]imidazol-1-yl)methyl)cyclohexyl)-2-methylnicotinamide]
IC50: < 300 nM

COc1ccc(-n2c(=O)n(C[C@H]3CC[C@H](NC(=O)c4cc(Cl)ccc4C)CC3)c3ccccc32)cn1 [Example 223, 5-chloro-N-((1r,4r)-4-((3-(6-methoxypyridin-3-yl)-2-oxo-2,3-dihydro-1H-benzo[d]imidazol-1-yl)methyl)cyclo-hexyl)-2-methylbenzamide]
IC50: < 300 nM

Cc1ncc(Cl)cc1C(=O)N[C@H]1CC[C@H](Cn2c(=O)n(-c3cnc4c(c3)OCC(=O)N4)c3ccccc32)CC1 [Example 224, 5-chloro-2-methyl-N-((1r,4r)-4-((2-oxo-3-(3-oxo-3,4-dihydro-2H-pyrido[3,2-b][1,4]oxazin-7-yl)-2,3-dihydro-1H-benzo[d]imidazol-1-yl)methyl)cyclohexyl)nicotinamide]
IC50: < 300 nM

CNC(=O)c1ccc(-n2c(=O)n(C[C@H]3CC[C@H](NC(=O)c4cc(Cl)cnc4C)CC3)c3cc(C)ccc32)cn1 [Example 225, 5-(3-(((1r,4r)-4-(5-chloro-2-methylnicotinamido)cyclo-hexyl)methyl)-5-methyl-2-oxo-2,3-dihydro-1H-benzo [d]imidazol-1-yl)-N-methylpicolinamide]
IC50: < 300 nM

CNC(=O)c1ccc(-n2c(=O)n(C[C@H]3CC[C@H](NC(=O)c4cc(Cl)cnc4C)CC3)c3cc(F)ccc32)cn1 [Example 226, 5-(3-(((1r,4r)-4-(5-chloro-2-methylnicotinamido)cyclo-hexyl)methyl)-5-fluoro-2-oxo-2,3-dihydro-1H-benzo[d]imidazol-1-yl)-N-methylpicolinamide]
IC50: < 300 nM

COc1ccc(-n2c(=O)n(C[C@H]3CC[C@H](NC(=O)c4cc(Br)cnc4C)CC3)c3ccccc32)cn1 [Example 227, 5-bromo-N-((1r,4r)-4-((3-(6-methoxypyridin-3-yl)-2-oxo-2,3-dihydro-1H-benzo[d]imidazol-1-yl)methyl)cyclo-hexyl)-2-methylnicotinamide]
IC50: < 300 nM

COc1ccc(-n2c(=O)n(C[C@H]3CC[C@H](NC(=O)c4cc(Cl)cnc4C(F)(F)F)CC3)c3ccccc32)cn1 [Example 228, 5-chloro-N-((1r,4r)-4-((3-(6-methoxypyridin-3-yl)-2-oxo-2,3-dihydro-1H-benzo[d]imidazol-1-yl)methyl)cyclo-hexyl)-2-(trifluoromethyl) nicotinamide]
IC50: < 300 nM

COCOCCn1nc(C)c2cc(-n3c(=O)n(C[C@H]4CC[C@H](NC(=O)c5cc(Cl)cnc5C)CC4)c4ccccc43)ccc21 [Example 229, 5-chloro-N-((1r,4r)-4-((3-(1-(2-(methoxymethoxy)ethyl)-3-methyl-1H-indazol-5-yl)-2-oxo-2,3-dihydro-1H-benzo[d]imidazol-1-yl)methyl)cyclo-hexyl)-2-methylnicotinamide]
IC50: < 300 nM

Cc1ncc(Cl)cc1C(=O)N[C@H]1CC[C@H](Cn2c(=O)n(-c3ccc4c(c3)c(C)nn4CCO)c3ccccc32)CC1 [Example 230, 5-chloro-N-((1r,4r)-4-((3-(1-(2-hydroxyethyl)-3-methyl-1H-indazol-5-yl)-2-oxo-2,3-dihydro-1H-benzo[d]imidazol-1-yl)methyl)cyclohexyl)-2-methylnicotinamide]
IC50: < 300 nM

COc1ccc(-n2c(=O)n(C[C@H]3CC[C@H](NC(=O)c4cc(Cl)cnc4C)CC3)c3ccccc32)c(C#N)c1 [Example 231, 5-chloro-N-((1r,4r)-4-((3-(2-cyano-4-methoxyphenyl)-2-oxo-2,3-dihydro-1H-benzo[d]imidazol-1-yl)methyl)cyclo-hexyl)-2-methylnicotinamide]
IC50: < 300 nM

Cc1ncc(Cl)cc1C(=O)N[C@H]1CC[C@H](Cn2c(=O)n(-c3ccc4nnn(C)c4c3)c3ccccc32)CC1 [Example 232, 5-chloro-2-methyl-N-((1r,4r)-4-((3-(1-methyl-1H-benzo[d] [1,2,3]triazol-6-yl)-2-oxo-2,3-dihydro-1H-benzo[d]imidazol-1-yl)methyl)cyclohexyl) nicotinamide]
IC50: < 300 nM

Cc1ncc(Cl)cc1C(=O)N[C@H]1CC[C@H](Cn2c(=O)n(-c3ccccc3[N+](=O)[O-])c3ccccc32)CC1 [Example 233, 5-chloro-2-methyl-N-((1r,4r)-4-((3-(2-nitrophenyl)-2-oxo-2,3-dihydro-1H-benzo[d]imidazol-1-yl)methyl)cyclo-hexyl)nicotinamide]
IC50: < 300 nM

Cc1ncc(Cl)cc1C(=O)N[C@H]1CC[C@H](Cn2c(=O)n(-c3ccccc3Cl)c3ncccc32)CC1 [Example 234, 5-chloro-N-((1r,4r)-4-((3-(2-chlorophenyl)-2-oxo-2,3-dihydro-1H-imidazo[4,5-b]pyridin-1-yl)methyl)cyclo-hexyl)-2-methylnicotinamide]
IC50: < 300 nM
